From publication PMC12307812 (Nature Communications, 2025)
Where two headings read alike, the source gives them in different places.

Assays:
[1] = target: T1, Recombinant Human TMPRSS2 (Homo sapiens, UniProt O15393); test: TMPRSS2 biochemical assay with pre-incubation of inhibitor and enzyme; details: for inhibition at 8.363 pM: concentration 0.00836301 nM; for inhibition at 25.09 pM: concentration 0.025089 nM; for inhibition at 75.27 pM: concentration 0.0752671 nM; for inhibition at 0.000225801 µM: concentration 0.225801 nM; for inhibition at 0.000677404 µM: concentration 0.677404 nM; for inhibition at 0.00203221 µM: concentration 2.03221 nM; for inhibition at 0.00609663 µM: concentration 6.09663 nM; for inhibition at 0.0182899 µM: concentration 18.2899 nM; for inhibition at 0.0548697 µM: concentration 54.8697 nM; for inhibition at 0.164609 µM: concentration 164.609 nM; for inhibition at 0.493827 µM: concentration 493.827 nM; for inhibition at 1.48148 µM: concentration 1481.48 nM; for inhibition at 4.44444 µM: concentration 4444.44 nM; for inhibition at 13.3333 µM: concentration 13333.3 nM; for inhibition at 40 µM: concentration 40000 nM; for inhibition at 2.788 pM: concentration 0.00278767 nM
T1 construct: human TMPRSS2 residues 106492, N-terminal 6x His-tag; 6x His-tag (N); purchased Cusabio CSB-YP023924HU; host or cells: yeast
Procedure: To that was dispensed TMPRSS2 (5 µl, 0.018 mg/ml) in assay buffer (50 mM Tris pH 8, 150 mM NaCl, 0.01% Tween20) using a BioRAPTR (Beckman Coulter) to give a total reaction volume of 5 µl. […] The final assay conditions are 10 µM peptide, 0.018 mg/ml TMPRSS2 in assay buffer (50 mM Tris-HCl, pH 8, 150 mM NaCl, 0.01% Tween20).
After incubation at room temperature for 1 h, fluorescence was measured. […] Raw plate reads for each titration point were normalized relative to a positive control containing no enzyme (0% activity, full inhibition) and a negative control containing DMSO-only wells (100% activity, basal activity). Data normalization was performed using GraphPad Prism (GraphPad Software, San Diego, CA).
We employed the curve fitting algorithm available in the SciPy package (version 1.10.1)[61] to derive the Hill slope and the IC50 value, along with their corresponding error estimates.
To model the relationship between the pre-incubation time and the IC50, we use the following equation inspired by the Morse potential:3 ft,a,D,te=D⋅1−exp−a⋅t−te^2 where t is the time, a is the width of the well, D is the IC50 at infinite time (depth of the well) and te is the time at which the IC50 reaches its minimum. Again, we made use of SciPy’s curve fitting method to obtain parameters a, D and te, with their respective error estimates.

[2] = tested on: vesicular stomatitis virus (VSV); assay type: cell-based; details: VSV
[3] = tested on: pseudovirus bearing S protein of HCoV-229E; test: organism not typed; assay type: cell-based
[4] = tested on: pseudovirus bearing S protein of SARS-CoV-1; test: organism not typed; assay type: cell-based
[5] = Calu-3, read-out: mean inhibition

T1 sequence (O15393 106-492 limits assumed): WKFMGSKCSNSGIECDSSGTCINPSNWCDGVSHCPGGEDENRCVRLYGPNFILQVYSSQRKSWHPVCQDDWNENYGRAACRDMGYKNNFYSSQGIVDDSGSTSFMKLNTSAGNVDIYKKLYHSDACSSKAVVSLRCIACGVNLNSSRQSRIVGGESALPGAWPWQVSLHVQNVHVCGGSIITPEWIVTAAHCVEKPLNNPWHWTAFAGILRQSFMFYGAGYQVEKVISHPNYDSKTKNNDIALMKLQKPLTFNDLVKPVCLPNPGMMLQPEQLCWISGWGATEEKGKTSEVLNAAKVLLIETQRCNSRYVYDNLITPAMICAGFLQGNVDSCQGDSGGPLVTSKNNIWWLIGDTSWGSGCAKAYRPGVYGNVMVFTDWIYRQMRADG

Compound `CN(C)C(=O)COC(=O)Cc1ccc(OC(=O)c2ccc(NC(=N)N)cc2)cc1` [camostat] has an inhibition at 8.363 pM ([1]; pre-incubation 18) of 17.1%, an inhibition at 25.09 pM ([1]; pre-incubation 18) of 57.1% and an inhibition at 75.27 pM ([1]; pre-incubation 18) of 86.7%. The inhibition at 0.000225801 µM ([1]; pre-incubation 18) was 91.7%, the inhibition at 0.000677404 µM ([1]; pre-incubation 18) was 94.1% and the inhibition at 0.00203221 µM ([1]; pre-incubation 18) was 95.7%. For the same compound, the inhibition at 0.00609663 µM ([1]; pre-incubation 18) was 98.6%, the inhibition at 0.0182899 µM ([1]; pre-incubation 18) was 99.3% and the inhibition at 0.0548697 µM ([1]; pre-incubation 18) was 99.9%. It also gave an inhibition at 0.164609 µM ([1]; pre-incubation 18) of 101%, an inhibition at 0.493827 µM ([1]; pre-incubation 18) of 102% and an inhibition at 1.48148 µM ([1]; pre-incubation 18) of 102%. It also gave an inhibition at 4.44444 µM ([1]; pre-incubation 18) of 103%, an inhibition at 13.3333 µM ([1]; pre-incubation 18) of 103% and an inhibition at 40 µM ([1]; pre-incubation 18) of 104%. The inhibition at 2.788 pM ([1]; pre-incubation 24) was 38.3%, the inhibition at 8.363 pM ([1]; pre-incubation 24) was 38.8% and the inhibition at 25.09 pM ([1]; pre-incubation 24) was 73.1%. It also gave an inhibition at 75.27 pM ([1]; pre-incubation 24) of 100%, an inhibition at 0.000225801 µM ([1]; pre-incubation 24) of 105% and an inhibition at 0.000677404 µM ([1]; pre-incubation 24) of 107%. The inhibition at 0.00203221 µM ([1]; pre-incubation 24) was 107%, the inhibition at 0.00609663 µM ([1]; pre-incubation 24) was 108% and the inhibition at 0.0182899 µM ([1]; pre-incubation 24) was 110%. It also gave an inhibition at 0.0548697 µM ([1]; pre-incubation 24) of 110%, an inhibition at 0.164609 µM ([1]; pre-incubation 24) of 111% and an inhibition at 0.493827 µM ([1]; pre-incubation 24) of 111%. For the same compound, the inhibition at 1.48148 µM ([1]; pre-incubation 24) was 112%, the inhibition at 4.44444 µM ([1]; pre-incubation 24) was 112% and the inhibition at 13.3333 µM ([1]; pre-incubation 24) was 112%. For the same compound, the inhibition at 40 µM ([1]; pre-incubation 24) was 113%, the inhibition at 2.788 pM ([1]; pre-incubation 48) was 4.55% and the inhibition at 8.363 pM ([1]; pre-incubation 48) was -1.82%. The inhibition at 25.09 pM ([1]; pre-incubation 48) was 28.4%, the inhibition at 75.27 pM ([1]; pre-incubation 48) was 71.5% and the inhibition at 0.000225801 µM ([1]; pre-incubation 48) was 83.3%. It also gave an inhibition at 0.000677404 µM ([1]; pre-incubation 48) of 86.8%, an inhibition at 0.00203221 µM ([1]; pre-incubation 48) of 88.2% and an inhibition at 0.00609663 µM ([1]; pre-incubation 48) of 89.9%. For the same compound, the inhibition at 0.0182899 µM ([1]; pre-incubation 48) was 90.6%, the inhibition at 0.0548697 µM ([1]; pre-incubation 48) was 91.9% and the inhibition at 0.164609 µM ([1]; pre-incubation 48) was 92.7%. For the same compound, the inhibition at 0.493827 µM ([1]; pre-incubation 48) was 94.2%, the inhibition at 1.48148 µM ([1]; pre-incubation 48) was 95.1% and the inhibition at 4.44444 µM ([1]; pre-incubation 48) was 97%. For the same compound, the inhibition at 13.3333 µM ([1]; pre-incubation 48) was 100%, the inhibition at 40 µM ([1]; pre-incubation 48) was 107% and the “mean log10(PFU/ml)” value ([2]; concentration 5 nM) was 9.003 log10(PFU/ml). For the same compound, the “mean log10(PFU/ml)” value ([2]; concentration 50 nM) was 8.994 log10(PFU/ml), the “mean log10(PFU/ml)” value ([2]; concentration 500 nM) was 9.01 log10(PFU/ml) and the “mean log10(PFU/ml)” value ([2]; concentration 5000 nM) was 9.013 log10(PFU/ml). The “mean log10(PFU/ml)” value ([2]; concentration 50000 nM) was 8.989 log10(PFU/ml), the IC50 ([3]; Calu-3, read-out: IC50 estimate, pseudovirus cell entry 229E-S) was 2010 ± 177 nM and the inhibition at 0.00025 µM [3, 5] was 1.18%. It also gave an inhibition at 0.0025 µM [3, 5] of 7.64%, an inhibition at 0.025 µM [3, 5] of 11.6% and an inhibition at 0.25 µM [3, 5] of 30.5%. It also gave an inhibition at 2.5 µM [3, 5] of 52.3%, an inhibition at 25 µM [3, 5] of 73.8% and an IC50 ([4]; Calu-3, read-out: IC50 estimate, pseudovirus cell entry SARS-1-S) of 193 ± 70.4 nM. The inhibition at 0.00025 µM ([4]; Calu-3, concentration 0.25 nM) was 3.15%, the inhibition at 0.0025 µM ([4]; Calu-3, concentration 2.5 nM) was 5.85% and the inhibition at 0.025 µM ([4]; Calu-3, concentration 25 nM) was 19.9%. The inhibition at 0.25 µM ([4]; Calu-3, concentration 250 nM) was 63.5%, the inhibition at 2.5 µM ([4]; Calu-3, concentration 2500 nM) was 76.2% and the inhibition at 25 µM ([4]; Calu-3, concentration 25000 nM) was 83.2%.
